Assay results reported in article PMC8705783, “The Effect of Conjugation with Octaarginine, a Cell-Penetrating Peptide on Antifungal Activity of Imidazoacridinone Derivative” (International Journal of Molecular Sciences, 2021).
In brackets after ≈: the same amount, converted by molar mass. Counter-ions that a name gives are not always drawn. Like-named read-outs stand apart in the source and are kept apart here. One block for each compound: values may come before it.

Experiments:
[1] = tested on: Candida glabrata ATCC 90030; test: microbe, parasite or virus in culture; details: Nakaseomyces glabratus, ATCC90030, 24 h, pH 7
reference strains = test: Antifungal activity, summary over reference strains; type: cell-based; design: key to Antifungal Activity (level): (−) Means no antifungal activity; (±) low activity; (+) moderate activity; (++) high activity at the concentration mentioned; details: for Antifungal Activity (level): Table 3; for antifungal activity: as reported in Table 1
[2] = tested on: Candida parapsilosis ATCC 22019; test: microbe, parasite or virus in culture; details: Lodderomyces parapsilosis, ATCC22019, 24 h, pH 7
Candida krusei ATCC 6258 [3] = test: microbe, parasite or virus in culture; details: Pichia kudriavzevii, ATCC6258, 24 h, pH 7
[4] = tested on: Saccharomyces cerevisiae ATCC 9763; test: microbe, parasite or virus in culture; details: ATCC9763, 24 h, pH 7
[5] = tested on: Candida albicans ATCC 10231; test: microbe, parasite or virus in culture
yeast topoisomerase II = yeast topoisomerase II (Saccharomyces cerevisiae, UniProt P06786); test: Yeast topoisomerase II relaxation assay; type: biochemical; details: supercoiled pBR322, tested at 1-200 μM
Experimental: Due to the known activity of acridine and acridone derivatives as human topoisomerase inhibitors widely analysed for cancer chemotherapy, we decided to analyse the influence of Compound 1 as well as its R8 conjugate on the fungal equivalent of that enzyme. The relaxation of supercoiled plasmid DNA by yeast topoisomerase II (yTOPO II) was studied in the presence of different concentrations of both compounds.
The inhibition of yeast topoisomerase II was analysed according to the relaxation assay kit from Inspiralis (Inspiralis Limited, Norwich, UK). Briefly, 250 ng of supercoiled pBR322 DNA (Thermo Fisher Scientific, Waltham, MA, USA), 1 mM ATP (Inspiralis Limited, UK), and 1–200 μM of the analysed compound were mixed with reaction buffer (1 mM Tris-HCl (pH 7.9), 10 mM KCl, 0.5 mM MgCl2, 0.2 % (by volume) glycerol). The reaction was initiated by the addition of an enzyme, allowed to proceed at 30 °C for 30 min and terminated by addition of 40% (m/V) sucrose, 100 mM Tris-HCl pH 8, 10 mM EDTA, and 0.5 mg mL^−1 Bromophenol Blue. Two-step extraction with chloroform:isoamyl alcohol (24:1, by volume) and butanol water was performed and mixtures were analysed on 1% agarose gel in 1 × TAE buffer, 3h, 4.5 V cm^−1. Gel was stained in GelRed 3 × staining solution (Biotium, Fremont, CA, USA) for 30 min and photographed with Gel Doc XR+Gel Documentation System (Bio-Rad: Hercules, CA, USA).

human topoisomerase II = details: cited from earlier work
[6] = tested on: reference and fluconazole-resistant clinical strains; details: 12 h
Candida albicans F2 [7] = details: F2, 12 h
Candida albicans Gu4 [8] = details: Gu4, 12 h
Candida krusei ATCC 6258 [9] = details: ATCC 6258, 24 h, pH 7
Candida albicans B3 [10] = details: B3, 12 h
[11] = tested on: Saccharomyces cerevisiae ATCC 9763; details: ATCC 9763, 24 h, pH 7
HEK-293 = test: cells; type: cell-based, human; details: 72 h
Experimental: (§1) The investigated compounds were screened for their in vitro antiproliferative activity towards a human embryonic kidney cell line (HEK-293) and human liver cancer cell line (HEPG2) using colorimetric MTT.
(§2) The human embryonic kidney cell line (HEK-293) and human liver cancer cell line (HEPG2) were purchased from ATCC (Manassas, Virginia, USA). HEK-293 was cultured in Dulbecco’s Modified Eagle Medium (Corning, NY, USA) and HEPG2 in Minimum Essential Medium Eagle (Corning, NY, USA). For each cell line, the culture medium was supplemented with 10% fetal bovine serum, 2 mM L-glutamine, and antibiotics: penicillin 62.6 µg mL^−1 and streptomycin 40 µg mL^−1. The cells were cultured at the humidified atmosphere of 5% CO2/95% air and routinely tested for Mycoplasma contamination.
(§3) Antiproliferative activity of the compounds was determined by (3-(4,5-dimethylthiazol-2-yl)-2,5-diphenyltetrazolium bromide (MTT, Sigma-Aldrich, St. Louis, MO, USA) assay, which involves the assessment of cell viability by the measurement of the cellular oxidoreductase activity. Briefly, cells were seeded into 96-well culture plates and were allowed to adhere overnight. The investigated compounds were dissolved in DMSO and added to wells (1% final concentration of DMSO) in various concentrations. After 72 h incubation, 20 µL of MTT solution in PBS (4 mg mL^−1) was added to each well, and plates were incubated for an additional 3h in standard culture conditions. After that, the medium was aspirated, and formazan crystals were dissolved in DMSO. The absorbance was determined at 570 nm with a microplate reader (Asys UVM 340 Microplate Reader, Biochrom, Cambridge, UK). All experiments were performed three times independently in triplicate.

HEPG2 = test: cells; type: cell-based, human; details: 72 h
Experimental: as §1, §2, §3

[12] = tested on: Candida albicans ATCC 10231; details: ATCC 10231, 24 h, pH 7
[13] = tested on: Candida glabrata ATCC 90030; details: ATCC 90030, 24 h, pH 7
[14] = tested on: Candida parapsilosis ATCC 22019; details: ATCC 22019, 24 h, pH 7
Candida albicans Gu5 [15] = details: Gu5, 12 h
S. cerevisiae ATCC 9763 = test: Minimal fungicidal concentration, spot assay; type: cell-based; details: minimal fungicidal concentration that kills 99% of cells
Experimental: (§4) To establish the possible mode of action for Compound 1-R8, we have analysed the killing activity and determined minimal fungicidal concentrations (MFCs) (Table 4). Additionally, killing kinetics analysis against pathogenic C. albicans ATCC 10231 was performed (Figure 2).
(§5) Minimum fungicidal concentrations (MFCs) were determined as described previously by spot assay. The MFC was determined as the lowest concentration of the test compound in which no recovery of microorganisms was observed.

Candida albicans B4 [16] = details: B4, 12 h
Candida albicans F5 [17] = details: F5, 12 h
C. glabrata DSM 11226 = test: microbe, parasite or virus in culture; type: cell-based; details: DSM 11226
Experimental: as §4, §5

C. albicans ATCC 10231 [18] = test: microbe, parasite or virus in culture; type: cell-based; details: ATCC 10231
Experimental: as §4, §5

C. krusei DSM 6128 = test: microbe, parasite or virus in culture; type: cell-based; details: DSM 6128
Experimental: as §4, §5

C. parapsilosis DSM 5784 = test: microbe, parasite or virus in culture; type: cell-based; details: DSM 5784
Experimental: as §4, §5

Candida albicans = tested on: Candida albicans; design: method as in PMID 23563951; key to Antifungal Activity (level): (−) Means no antifungal activity; (±) low activity; (+) moderate activity; (++) high activity at the concentration mentioned; details: cited from earlier work
C. albicans ATCC 10231 [19] = type: cell-based, Candida albicans; details: 1/4 × MIC to 4 × MIC, RPMI medium
Experimental: Killing kinetics analysis was performed as described previously. […] After an appropriate time of incubation, 10 μL was withdrawn and spread on YPG agar plates. The number of colony-forming units (CFUs) was determined after overnight incubation of the plates at 37 °C. The killing kinetics analysis was performed with the GraphPad Prism 8 software (GraphPad Software Inc., San Diego, CA, USA).

Candida albicans Gu5 [20] = test: microbe, parasite or virus in culture
Candida albicans Gu4 [21] = test: microbe, parasite or virus in culture
Candida albicans F2 [22] = test: microbe, parasite or virus in culture
Candida albicans F5 [23] = test: microbe, parasite or virus in culture
Candida albicans B3 [24] = test: microbe, parasite or virus in culture
Candida albicans B4 [25] = test: microbe, parasite or virus in culture

Chain of yeast topoisomerase II (P06786 whole entry): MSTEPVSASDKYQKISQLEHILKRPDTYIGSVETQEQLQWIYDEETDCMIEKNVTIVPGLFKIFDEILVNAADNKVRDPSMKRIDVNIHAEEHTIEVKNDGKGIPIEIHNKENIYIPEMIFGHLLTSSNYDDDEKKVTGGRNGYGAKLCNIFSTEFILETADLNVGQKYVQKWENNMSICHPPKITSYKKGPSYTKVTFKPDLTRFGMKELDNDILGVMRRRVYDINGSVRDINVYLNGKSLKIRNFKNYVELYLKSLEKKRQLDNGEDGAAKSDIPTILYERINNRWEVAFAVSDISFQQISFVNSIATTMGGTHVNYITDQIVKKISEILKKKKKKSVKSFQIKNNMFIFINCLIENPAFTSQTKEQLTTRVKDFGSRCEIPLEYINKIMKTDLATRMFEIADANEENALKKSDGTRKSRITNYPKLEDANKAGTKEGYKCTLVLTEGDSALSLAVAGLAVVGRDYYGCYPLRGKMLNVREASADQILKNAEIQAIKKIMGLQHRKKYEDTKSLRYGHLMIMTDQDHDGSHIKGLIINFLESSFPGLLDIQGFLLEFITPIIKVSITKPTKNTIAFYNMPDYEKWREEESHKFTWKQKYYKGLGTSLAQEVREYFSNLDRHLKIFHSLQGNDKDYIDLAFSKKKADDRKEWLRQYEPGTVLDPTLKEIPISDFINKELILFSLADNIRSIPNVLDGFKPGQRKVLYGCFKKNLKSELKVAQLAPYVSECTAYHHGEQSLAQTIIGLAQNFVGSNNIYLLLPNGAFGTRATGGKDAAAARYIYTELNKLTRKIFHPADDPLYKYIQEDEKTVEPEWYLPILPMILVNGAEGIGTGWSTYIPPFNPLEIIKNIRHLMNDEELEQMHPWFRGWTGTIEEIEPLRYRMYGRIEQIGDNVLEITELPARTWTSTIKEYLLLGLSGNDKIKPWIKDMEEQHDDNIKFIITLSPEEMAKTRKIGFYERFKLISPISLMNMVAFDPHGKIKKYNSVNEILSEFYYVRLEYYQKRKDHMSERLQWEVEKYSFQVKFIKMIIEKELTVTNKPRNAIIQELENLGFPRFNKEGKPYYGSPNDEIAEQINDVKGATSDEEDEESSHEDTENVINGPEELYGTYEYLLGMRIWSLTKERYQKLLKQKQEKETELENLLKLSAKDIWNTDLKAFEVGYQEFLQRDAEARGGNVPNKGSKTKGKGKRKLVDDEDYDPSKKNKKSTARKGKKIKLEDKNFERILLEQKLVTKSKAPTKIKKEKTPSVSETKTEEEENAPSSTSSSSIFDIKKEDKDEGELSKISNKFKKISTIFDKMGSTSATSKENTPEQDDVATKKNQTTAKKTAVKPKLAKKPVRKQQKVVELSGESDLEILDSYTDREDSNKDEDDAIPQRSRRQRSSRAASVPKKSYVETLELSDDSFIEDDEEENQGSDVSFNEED

melting point: 120 to 122 °C
SMILES: Cc1ccc2c(c1)c(=O)c1c(NCCCN(C)C)ccc3nnn2c31 (as salt: hydrochloride) [Compound C-1296, 5-[-(3′-Dimethylamino)propylamino]-8-methyl-6H-[1,2,3]-triazolo[4,5,l-de]acridin-6-one]

melting point: 300 °C
SMILES: CCNCCNc1ccc2nnn3c4ccc(O)cc4c(=O)c1c23 (as salt: hydrochloride) [Compound C-1410, 5-[2′-(Ethyl)-ethylenediamine]-8-hydroxy-6H-[1,2,3]-triazolo[4,5,l-de]acridin-6-one]

MIC90 [1]: > 64 µg/mL | MIC90 [2]: > 64 µg/mL | MIC90 (Candida krusei ATCC 6258 [3]): > 64 µg/mL | MIC90 [4]: > 64 µg/mL | MIC90 ([5]; ATCC10231, 24 h, pH 7): > 64 µg/mL
SMILES: CCNCCNc1ccc2nnn3c4ccc(O)cc4c(=O)c1c23 [Compound C-1410, 5-[2′-(Ethyl)-ethylenediamine]-8-hydroxy-6H-[1,2,3]-triazolo[4,5,l-de]acridin-6-one]
Antifungal Activity (level) (reference strains): − | antifungal activity (reference strains): no antifungal activity was observed

SMILES: CN(C)CCCNc1ccc2nnn3c4ccc(O)cc4c(=O)c1c23 (as salt: hydrochloride) [Compound C-1305, 5-[-(3′-Dimethylamino)propylamino]-8-hydroxy-6H-[1,2,3]-triazolo[4,5,l-de]acridin-6-one]
melting point: 228 to 230 °C

SMILES: CN(C)CCCNc1ccc2nnn3c4ccc(O)cc4c(=O)c1c23 [Compound C-1305, 5-[-(3′-Dimethylamino)propylamino]-8-hydroxy-6H-[1,2,3]-triazolo[4,5,l-de]acridin-6-one]
MIC90 [1]: > 64 µg/mL | Antifungal Activity (level) (reference strains): − | antifungal activity (reference strains): no antifungal activity was observed | MIC90 [2]: > 64 µg/mL | MIC90 (Candida krusei ATCC 6258 [3]): > 64 µg/mL | MIC90 [4]: > 64 µg/mL | MIC90 ([5]; ATCC10231, 24 h, pH 7): > 64 µg/mL | concentration that totally inhibited yeast topoisomerase II-mediated relaxation (yeast topoisomerase II): 50 µM | concentration that totally inhibited human topoisomerase II-mediated relaxation (human topoisomerase II): 10 µM | IC50 (human topoisomerase II; read-out: concentration that diminished the relaxation reaction by 50%): 2500 nM

SMILES: N=C(N)NCCC[C@H](NC(=O)[C@H](CCCNC(=N)N)NC(=O)[C@H](CCCNC(=N)N)NC(=O)[C@H](CCCNC(=N)N)NC(=O)[C@H](CCCNC(=N)N)NC(=O)[C@H](CCCNC(=N)N)NC(=O)[C@H](CCCNC(=N)N)NC(=O)[C@@H](N)CCCNC(=N)N)C(=O)NCCNc1ccc2ncn3c4ccc(O)cc4c(=O)c1c23 [Compound 1-R8]
MICs [6]: ≤ 4 µg/mL | MIC90 (Candida albicans F2 [7]): 1 µg/mL (≈ 0.648 µM) | MIC90 (Candida albicans Gu4 [8]): 2 µg/mL (≈ 1.3 µM) | MIC90 (Candida krusei ATCC 6258 [9]): 0.5 µg/mL (≈ 0.324 µM) | MIC90 (Candida albicans B3 [10]): 2 µg/mL (≈ 1.3 µM) | MIC90 [11]: 1 µg/mL (≈ 0.648 µM) | IC50 (HEK-293): 1390 ± 99 nM | IC50 (HEPG2): 991 ± 97 nM | MIC90 [12]: 1 µg/mL (≈ 0.648 µM) | MIC90 [13]: 4 µg/mL (≈ 2.59 µM) | MIC90 [14]: 0.25 µg/mL (≈ 0.162 µM) | MIC90 (Candida albicans Gu5 [15]): 2 µg/mL (≈ 1.3 µM) | MFC (S. cerevisiae ATCC 9763): 2 µg/mL (≈ 1.3 µM) | MIC90 (Candida albicans B4 [16]): 2 µg/mL (≈ 1.3 µM) | MIC90 (Candida albicans F5 [17]): 1 µg/mL (≈ 0.648 µM) | MFC (C. glabrata DSM 11226): 128 µg/mL (≈ 82.9 µM) | MFC (C. albicans ATCC 10231 [18]): 32 µg/mL (≈ 20.7 µM) | MFC (C. krusei DSM 6128): 16 µg/mL (≈ 10.4 µM) | MFC (C. parapsilosis DSM 5784): 8 µg/mL (≈ 5.18 µM)

MIC90 [1]: > 64 µg/mL | MIC90 [2]: > 64 µg/mL | MIC90 (Candida krusei ATCC 6258 [3]): > 64 µg/mL | MIC90 [4]: 32 µg/mL (≈ 95.4 µM) | MIC90 ([5]; ATCC10231, 24 h, pH 7): > 64 µg/mL
SMILES: Cc1ccc2c(c1)c(=O)c1c(NCCCN(C)C)ccc3nnn2c31 [Compound C-1296, 5-[-(3′-Dimethylamino)propylamino]-8-methyl-6H-[1,2,3]-triazolo[4,5,l-de]acridin-6-one]
Antifungal Activity (level) (reference strains): ± | antifungal activity (reference strains): no antifungal activity was observed

SMILES: CCN(CC)CCNc1ccc2ncn3c4ccc(OC)cc4c(=O)c1c23 [Compound C-1330]
Antifungal Activity (level) (Candida albicans; Table 3, activity data published previously ref 8): + | antifungal activity (Candida albicans): showed phototoxic antifungal activity

SMILES: NCCNc1ccc2ncn3c4ccc(O)cc4c(=O)c1c23 (as salt: hydrochloride) [Compound 1, 5-((2-Aminoethyl)amino)-8-hydroxy-6H-imidazo[4,5,1-de]acridin-6-one]
melting point: 332 to 334 °C

SMILES: OC(Cn1cncn1)(Cn1cncn1)c1ccc(F)cc1F [Fluconazole]
killing kinetics, kind of effect (C. albicans ATCC 10231 [19]): fungistatic | MIC90 (Candida albicans Gu5 [20]): > 64 µg/mL | MIC90 (Candida albicans Gu4 [21]): 4 µg/mL (≈ 13.1 µM) | MIC90 (Candida albicans F2 [22]): 8 µg/mL (≈ 26.1 µM) | MIC90 (Candida albicans F5 [23]): > 64 µg/mL | MIC90 (Candida albicans B3 [24]): 1 µg/mL (≈ 3.27 µM) | MIC90 ([5]; ATCC10231): 8 µg/mL (≈ 26.1 µM) | MIC90 (Candida albicans B4 [25]): 16 µg/mL (≈ 52.2 µM)
